The record followed here is US6342508B1, “N-hydroxy-2-(Alkyl,Aryl or Heteroaryl sulfanyl, sulfinyl or sulfonyl) 3-substituted alkyl, aryl or heteroarylamides as matrix metalloproteinase inhibitors” (American Cyanamid Company, priority 1997, dated 2002).

Counter-ions that a name gives are not always drawn.

With `COc1ccc(S(=O)(=O)C(CC=C(C)C)(CC=C(C)C)C(=O)NO)cc1` [Example 79, 2-(4-Methoxy-benzenesulfonyl)-5-methyl-2-(3-methyl-but-2-enyl)-hex-4-enoic acid hydroxyamide], the melting point (in general, the temperature of the solid-liquid transition) was 93 to 96 °C.
The figure for `C#CCC(CC#C)(C(=O)NO)S(=O)(=O)c1ccc(OC)cc1` [Example 73, 2-(4-Methoxy-benzenesulfonyl)-2-prop-2-ynyl-pent-4-ynoic acid hydroxyamide] is 156 °C.
The figure for `COc1ccc(S(=O)(=O)C2(C(=O)NO)CCN(C)CC2)cc1` [Example 97, 1-Methyl-4-(4-methoxy-benzenesulfonyl)-piperidine-4-carboxylic acid hydroxyamide] is 89 °C; for `COc1ccc(S(=O)(=O)C(C)(Cc2ccc(OCCN3CCOCC3)cc2)C(=O)NO)cc1` (stereo not drawn) (as salt: hydrochloride) [Example 82, 2-(4-methoxy-benzenesulfonyl)-2-methyl-3-[4-(2-mopholinyl-ethoxy)-phenyl]-propionic hydroxyamide hydrochloride] it is 98 °C; for `COc1ccc(S(=O)(=O)C(C)(CC2CCCCC2)C(=O)NO)cc1` (stereo not drawn) [Example 16, 3-Cyclohexyl-N-hydroxy-2-(4-methoxy-benzenesulfonyl)-2-methyl-propionamide] it is 58 °C.
On to `COc1ccc(S(=O)(=O)C(C)(Cc2ccc3ncccc3c2)C(=O)NO)cc1` (stereo not drawn) [Example 67, N-Hydroxy-2-(4-methoxy-benzensulfonyl)-2-methyl-3-quinolin-6-yl-propionamide], for which the melting point is 206 °C.
Then `COc1ccc(S(=O)(=O)C(Cc2cccnc2)(CC2CCCCC2)C(=O)NO)cc1` (stereo not drawn) (as salt: hydrochloride) [Example 65, 3-Cyclohexyl-N-hydroxy-2-(4-methoxy-benzenesulfonyl)2-pyridin-3-ylmethyl-propionamide], with 57 to 60 °C; and `C=CCC(CC=C)(C(=O)NO)S(=O)(=O)c1ccc(OC)cc1` [Example 58, 2-allyl-2-(4-methoxy-benzenesulfonyl)-pent-4-enoic acid hydroxyamide], with 114 to 116 °C; and `CC#CCC(CC#CC)(C(=O)NO)S(=O)(=O)c1ccc(F)cc1` [Example 78, 2-(4-Fluoro-benzenesulfonyl)-2-but-2-ynyl-hex-4-ynoic acid hydroxyamide], with 161 to 163 °C.
The figure for `COc1ccc(S(=O)(=O)C(C)(Cc2cccc(OCCN3CCCCC3)c2)C(=O)NO)cc1` (stereo not drawn) [Example 22, N-Hydroxy-2-(4-methoxy-benzenesulfonyl)-2-methyl-3-[3-(2-piperidin-1-yl-ethoxy)-phenyl]-propionamide] is 74 °C; for `CCCCCCCCCCCCC(C(=O)NO)S(=O)(=O)c1ccc(OC)cc1` (stereo not drawn) [Example 11, 2-(4-Methoxy-benzenesulfonyl)-tetradecanoic hydroxyamide] it is 114 °C.
Molecule `CCCCCCC(Sc1ccc(F)cc1)C(=O)NO` (stereo not drawn) [Example 38, 2-(4-Fluoro-phenylsulfanyl)-octanoic acid hydroxyamide] registered a melting point of 58 °C.
The figure for `COc1ccc(S(=O)(=O)C2(C(=O)NO)CCN(CCCc3ccccc3)CC2)cc1` [Example 91, 4-(4-methoxy-benzenesulfonyl)-1-(3-phenyl-propyl)-piperidine-4-carboxylic acid hydroxyamide] is 143 °C; for `COc1ccc(S(=O)(=O)C2(C(=O)NO)CCN(Cc3ccc(OCCN4CCCCC4)cc3)CC2)cc1` (as salt: HCl) [Example 109, 4-(4-Methoxy-benzenesulfonyl)-1-[4-(2-piperidin-1-yl-ethoxy)-benzyl]-piperidine-4-carboxylic acid hydroxyamide] it is 114 °C.
Then `COc1ccc(SC(C(=O)NO)c2ccccc2)cc1` (stereo not drawn) [Example 2, N-Hydroxy-2-(4-methoxy-phenylsulfanyl)-2-phenyl-acetamide], with 155 °C; and `COc1ccc(SC(C)(CC=C(C)C)C(=O)NO)cc1` (stereo not drawn) [Example 3, 2-(4-Methoxy-phenylsulfanyl)-2,5-dimethyl-hex-4-enoic acid hydroxyamide], with 89 °C; and `COc1ccc(S(=O)(=O)C(CC=C(C)C)(Cc2cccnc2)C(=O)NO)cc1` (stereo not drawn) [Example 63, 2-(4-Methoxy-benzenesulfonyl)-5-methyl-2-pyridin-3-ylmethyl-hex-4-enoic acid hydroxyamide], with 89 to 92 °C.
Then `COc1ccc(S(=O)(=O)C(CCCc2ccccc2)(CCCc2ccccc2)C(=O)NO)cc1` [Example 57, 2-(4methoxy-benzenesulfonyl)-5phenyl-2-(3-phenyl-propyl)-pentanoic acid hydroxyamide], with 118 to 120 °C.
As to `COc1ccc(S(=O)(=O)C2(C(=O)NO)CCN(Cc3ccc(C)cc3)CC2)cc1` [Example 86, 4-(4-methoxy-benzenesulfonyl)-1-(4-methylbenzyl)-piperidine-4-carboxylic acid hydroxamide], the melting point lay in the range of 176 to 177 °C.
The figure for `COc1ccc(S(=O)(=O)C(C)(Cc2ccc(OCCN(C(C)C)C(C)C)cc2)C(=O)NO)cc1` (stereo not drawn) (as salt: HCl) [Example 20, N-Hydroxy-2-(4-methoxy-benzenesulfonyl)-2-methyl-3-[4-(2-N,N-diisopropylamino-ethoxy)-phenyl]-propionamide] is 98 °C.
Molecule `CCCCOc1ccc(S(=O)(=O)C2(C(=O)NO)CCN(CCCOc3ccccc3)CC2)cc1` [Example 106, 4-(4-n-Butoxy-benzenesulfonyl)-1-(3-phenoxy-propyl)-piperidine-4-carboxylic acid hydroxyamide] had a melting point of 84 °C.
The figure for `COc1ccc(S(=O)(=O)C(CCCCOc2ccccc2)(Cc2cccnc2)C(=O)NO)cc1` (stereo not drawn) [Example 68, 2-(4-Methoxy-benzenesulfonyl)-6-phenoxy-2-pyridin-3-ylmethyl-hexanoic acid hydroxyamide] is 68 °C.
The figure for `COc1ccc(S(=O)(=O)C(C)(Cc2ccccc2)C(=O)NO)cc1` (stereo not drawn) [Example 12, N-Hydroxy-2-(4-methoxy-benzenesulfonyl)-2-methyl-3-phenyl-propionamide] is 58 °C; for `COc1ccc(S(=O)(=O)C(CCC(C)C)(Cc2cccnc2)C(=O)NO)cc1` (stereo not drawn) (as salt: HCl) [Example 69, 2-(4-Methoxy-benzenesulfonyl)-5-methyl-2-pyridin-3-ylmethyl-hexanoic acid hydroxyamide] it is 62 °C; for `CCCCOc1ccc(S(=O)(=O)C2(C(=O)NO)CCN(Cc3ccc(OC)cc3)CC2)cc1` (as salt: HCl) [Example 104, 4-(4-n-Butoxy-benzenesulfonyl)-1-(4-methoxy-benzyl)-piperidine-4-carboxylic acid hydroxyamide] it is 173 °C.
Turning to `CCCCCCC(Cc1ccc(OCCN2CCCCCC2)cc1)(C(=O)NO)S(=O)(=O)c1ccc(OC)cc1` (stereo not drawn) [Example 36, 2-[4-(2-Azepan-1-yl-ethoxy)-benzyl]-2-(4-Methoxy-benzenesulfonyl)-octanoic acid hydroxyamide], the melting point stood at 65 °C.
In turn, `CC#CCC(Cc1cccnc1)(C(=O)NO)S(=O)(=O)c1ccc(F)cc1` (stereo not drawn) (as salt: salt) [Example 76, 2-(4-Fluoro-benzenesulfonyl)-2-pyridin-3-ylmethyl-hex-4-ynoic acid hydroxyamide] gave a melting point of 190 °C.
